Target: Trypanosoma brucei (Tb) N-myristoyl transferase (Trypanosoma brucei brucei, UniProt Q388H8)
Experiment: Fluorescence-based NMT assay (a), adapted version, TbNMT
Format: biochemical

Sequence of Trypanosoma brucei (Tb) N-myristoyl transferase (Q388H8 entry or part of it): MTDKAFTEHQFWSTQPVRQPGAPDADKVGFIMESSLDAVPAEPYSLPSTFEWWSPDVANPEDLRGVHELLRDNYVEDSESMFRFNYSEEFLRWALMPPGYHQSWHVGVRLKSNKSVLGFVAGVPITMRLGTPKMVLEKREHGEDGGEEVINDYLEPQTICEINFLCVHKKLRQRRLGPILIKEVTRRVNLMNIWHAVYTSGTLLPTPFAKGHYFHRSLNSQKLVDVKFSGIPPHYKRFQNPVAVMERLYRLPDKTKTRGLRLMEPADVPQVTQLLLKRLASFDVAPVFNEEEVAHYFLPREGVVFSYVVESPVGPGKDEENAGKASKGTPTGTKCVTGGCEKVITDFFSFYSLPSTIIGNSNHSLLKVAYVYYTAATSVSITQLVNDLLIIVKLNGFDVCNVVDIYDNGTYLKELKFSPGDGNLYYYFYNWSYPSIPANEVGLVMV

For Cc1nn(C)c(C)c1CCOc1cc(F)ccc1-c1ccc2[nH]nc(CN(C)C)c2c1 [Example 7], the IC50 was 1 to 100 nM.

Source: patent publication US11466011B2, “Compounds and their use as inhibitors of N-myristoyl transferase” (Imperial College Innovations Limited, priority 2015, dated 2022)
